Earlier results as cited in patent US9642356B2, “Maturation or ripening inhibitor release from polymer, fiber, film, sheet or packaging” (Cellresin Technologies, LLC, priority 2009, dated 2017).

Compound | activity for inhibiting ethylene generation (ethylene generation) | blocking of ethylene binding (ethylene binding site)
C=CCC [Example 1-butene, 1-butene] | at least some measurable activity | 
CC1=CC1 [Example 1-MCP, 1-methylcyclopropene] | at least some measurable activity | 
C1=CCC=C1 [Cyclopentadiene] |  | effective blocking agent for ethylene binding
